tested on: Hepatocyte spheroids; test: Cell viability is assessed by cellular ATP assay using CellTiter-Glo Luminescent kit. Viability is expressed as average RLU from biological replicates and normalized to negative control.Toxicity is defined as those with normalized ATP significantly less than 80 percent of the negative control.; assay type: functional, Homo sapiens; parameters: unit not given here; details: not given

| SMILES | Proliferation |
| --- | --- |
| CNc1nc(-c2ccc3c(N)n[nH]c3c2)cc(N2C[C@@H](C(=O)NC3CCCCC3)CC[C@H]2C)n1 | 0.1604 |
| Cn1c(=O)c(Oc2ccc(F)cc2F)cc2cnc(NC(CCO)CCO)nc21 [PAMAPIMOD] | 0.003154 |
| CN(C)C/C=C/C(=O)Nc1cc2c(Nc3ccc(F)c(Cl)c3)ncnc2cc1O[C@H]1CCOC1.O=C(O)/C=C\C(=O)O.O=C(O)/C=C\C(=O)O [AFATINIB DIMALEATE] | 0.1122 |
| CC(=O)C1=C(C)N(c2cccc(C(F)(F)F)c2)C(=O)N[C@@H]1c1ccc(C#N)nc1 [BAY-678] | 0.03291 |
| Cc1nnc2c3ccccc3c(N[C@@H](C)[C@H](c3ccccc3)N(C)C)nn12 | 0.0435 |
| COc1cc2c(cc1OCCCN1CCCC1)N=C(N)C21CCC1 | 0.2543 |
| Nc1ncnc2c1ccn2[C@@H]1O[C@H]([C@H](O)c2ccccc2)[C@@H](O)[C@H]1O | 0.1599 |
| CC(C)(C)S(=O)(=O)c1cc2c(Nc3ccc4scnc4c3)ncnc2cc1OCCO | 0.5541 |
| CO[C@H]1CNC[C@@H](OCC2CCC(F)(F)CC2)[C@@H]1Nc1ncc(-c2cncc(C)c2)c2cc(C)c(=O)[nH]c12 | 0.02957 |

same assay, conditions: Concentration range 5nM-5uM

| SMILES | Proliferation |
| --- | --- |
| COc1cc2c(NC3CCN(C(C)C)CC3)nc(N3CCC(F)(F)CC3)nc2cc1OCCCN1CCCC1 | 0.008491 |

same assay, conditions: Concentration range 10nM-10uM

| SMILES | Proliferation |
| --- | --- |
| Cc1cc2nc(N3CCC(C(=O)NC4CCCC4)CC3)n(C(C)C)c2cc1C | 0.1009 |
| Cc1cc(=O)n(C)c2cc(N3C(=O)CC[C@H](NS(=O)(=O)CC(C)C)[C@H]3c3ccc(Cl)cc3)ccc12 | 0.2341 |
| CCCOc1ccn2c(C(C)=O)cc(-c3ccccc3S(C)(=O)=O)c2c1 | 0.6349 |
